# System: aromatase
# Assay: aromatase assay according to Graves and Salhanick using human placental microsomes in vitro
# Type: biochemical
# Procedure: The novel compounds of formula I and their pharmaceutically acceptable salts have, for example, valuable pharmacological properties as aromatase inhibitors. […] In this experimental method, the formation of water with tritium isotopes and 17β-oestradiol obtained from [1β,2β--^3 H]-testosterone is measured as a result of the action of a compound of the formula I on the formation of the hydrogenated form of the aromatase coenzyme, nicotinamide adenine dinucleotide phosphate (NADPH).
smiles,measurement,setting,value
"Nc1ccc(C23CC2C(=O)N(CC2CCCCC2)C3=O)cc1 (centres unmarked) [Example 12, 1-(4-Aminophenyl)-3-cyclohexylmethyl-3-azabicyclo[3.1.0]hexane-2,4-dione]","enzyme activity (NADPH content); content of water with radioactive tritium isotopes formed from [1β,2β-3H]-testosterone",compared with measurements without addition of compound,substantially reduces the enzyme activity
same,diminution of enzyme activity in comparison measurements with known aromatase inhibitors,comparison with aminoglutethimide,"substantially greater than with the addition of other known aromatase inhibitors, e.g. aminoglutethimide"

# Reference: US4839379A, “Substituted azabicycloalkanes, the use thereof, pharmaceutical compositions containing them” (Ciba-Geigy Corporation, priority 1982, dated 1989)
